Experimental data published in US12240853B2, “Compounds useful in HIV therapy” (GlaxoSmithKline Intellectual Property (No.2) Limited, priority 2019, dated 2025).

Legend:
[1] = Example 18 dog PK studies (SC and IM); assay type: in vivo, beagle dogs; conditions: beagle dog, single SC or IM injection, 5 mg parent/kg
Description: Example 18 referenced herein was made in accordance with Synthesis B. Six male beagle dogs (+1 spare) were selected from the Testing Facility's colony of non-naïve animals. The animals were assigned to the study based on acceptable health as determined by a Testing Facility veterinarian. Six animals were selected and placed into two groups of three animals each. Fasting of the animals before or after dosing was not required.
On Day 1 each animal in Group 1 received a single intrascapular subcutaneous injection of prepared test article at a target dose level of 5 mg parent/kg in 2% P404/2% PEG3350/PBS (dose concentration 97.36 mg/mL prodrug) and at a dose volume of 0.1 mL/kg. Each animal in Group 2 received a single intramuscular injection of prepared test article in a hind quarter (quadriceps) at a target dose level of 5 mg parent/kg in 2% P404/2% PEG3350/PBS (dose concentration 97.36 mg/mL prodrug) and at a dose volume of 0.1 mL/kg. The animals were manually restrained for dosing and were not sedated. The dose sites were clipped of hair and wiped with alcohol before dosing. […]
The PK plasma samples were analyzed approximately every two weeks by the Testing Facility to determine the concentration of Example 18 (prodrug) and parent using an LC-MS/MS Research Grade Assay (RGA-1) with sensitivity to 0.1 ng/mL. […]

[2] = Example 18 rat PK studies (SC and IM); assay type: in vivo, Wistar Han rats; conditions: single SC or IM injection, 20 mg parent/kg
Description: Example 18 referenced herein was made in accordance with Synthesis B. A total of seven naïve male Wistar Han rats, 250-275 g, were received from the supplier equipped with a surgically-implanted jugular vein catheter (JVC) to facilitate blood sample collection during the first several days of the study. Following an acclimation period, the animals were assigned to the study based on acceptable health as determined by a staff veterinarian and catheter patency. Six animals were placed into two groups of 3 rats per group. Fasting of the animals before or after dosing was not required.
On Day 1 each animal in Group 1 received a single intrascapular subcutaneous injection of prepared test article at a target dose level of 20 mg parent/kg and at a dose volume of 0.49 mL/kg. Each animal in Group 2 received a single intramuscular injection of prepared test article into a thigh muscle at a target dose level of 20 mg parent/kg and at a dose volume of 0.49 mL/kg. The animals were manually restrained for dosing and were not sedated. […]
Interim blood samples for PK (Groups 1A and 2A) were collected from the jugular vein catheter or by venipuncture of a jugular vein if the catheter was not patent. […] The PK plasma samples were analyzed every 1-2 weeks by the Testing Facility to determine the concentration of prodrug and parent using an LC-MS/MS Research Grade Assay (RGA-1) with sensitivity to 0.1 ng/mL. […]

[3] = system: HIV pseudotyped virus (NL4-3 provirus, luciferase reporter), WT; test: PSV (pseudotyped virus) assay, WT; conditions: Human immunodeficiency virus 1, NL43, 72 h, read-out: WT IC50
Description: A pseudotyped virus assay (PSV) was used to assess the potency of the HIV inhibitor.
The PSV assay was performed by using U373 cells stably transformed to express human CD4, the primary receptor for HIV entry and either human CXCR4 or human CCR5 which are the co-receptors required for HIV entry as target cells for infection. […] This dose-range was applied to U373 cells and the pre-made pseudotyped virus added. The amount of luciferase signal produced after 3 days of culture was used to reflect the level of pseudotyped virus infection. An IC50, or the concentration of inhibitor required to reduce PSV infection by 50% from the infection containing no inhibitor was calculated. […] IC50 values were determined from a 10 point dose response curve using 3-4-fold serial dilution for each compound, which spans a concentration range>1000 fold.
These values are plotted against the molar compound concentrations using the standard four parameter logistic equation: y=((Vmax*x^n)/(K^n+x^n))+Y2

[4] = system: HIV pseudotyped virus, M184V; assay type: cell-based; conditions: U373 cells (CD4, CXCR4 or CCR5), luciferase signal after 3 days

C#C[C@]1(COC(=O)CCCCCCCCC)O[C@@H](n2cnc3c(N)nc(F)nc32)C[C@@H]1OC(=O)CCCCCCCCC [Example 18, (2R,3S,5R)-5-(6-amino-2-fluoro-9H-purin-9-yl)-2-((decanoyloxy)methyl)-2-ethynyltetrahydrofuran-3-yl Decanoate]
Clinical observations and dose site reactions [1]: All animals appeared normal at the time of each observation and no dose site reactions were observed
Clinical observations and dose site reactions [2]: All animals appeared normal at the time of each observation and no dose site reactions were observed
IC50 [3]: 10 nM
IC50 [4]: 73 nM
